From US20100234469A1, “New Crystals Of A Benzoylbenzeneacetamide Derivative” (Medichem, S.A., priority 2009, published 2010)
Converted amounts (≈) assume the structure as drawn. Like-named read-outs stand apart in the source and are kept apart here. Each block holds one compound with its values, some of them ahead of it.

How the values were obtained:
[1] = Particle size distribution (Malvern Mastersizer S); type: physicochemical; details: for DMVS (μm): Table 4, surface area mean diameter (D[3,2]); for D[4,3]: mean diameter by volume
Protocol: The particle size for nepafenac was measured using a Malvern Mastersizer S particle size analyzer with an MS1-Small Volume Sample Dispersion Unit stirred cell. A 300RF mm lens and a beam length of 2.4 mm were used. Samples for analysis were prepared by wetting a weighed amount of nepafenac (approximately 50 mg) with 0.5 mL of a 1% solution of Igepal CA-630 in deionized water, and dispersing in 20 mL of deionized water. After sonication for 1 minute, the suspension was delivered drop-wise to the previously background and corrected measuring cell filled with dispersant (deionized water) until the obscuration reached the desired level. Volume distributions were obtained for three times. After completing the measurements, the sample cell was emptied and cleaned, refilled with suspending medium, and the sampling procedure repeated again. For characterization, the values of D10, D50 and D90 (by volume), D[4,3] (mean diameter by volume) and D[3,2] (mean diameter by surface area to volume, or Sauter diameter) were specifically listed, each one being the mean of the six values available for each characterization parameter.
The notation Dx means that X % of the particles have a diameter less than a specified diameter D. Thus a D90 [or D(v, 0.9)] of 100 μm means that 90% of the particles have a diameter less than 100 μm.

[2] = BET specific surface area; type: physicochemical; details: for Sw (m^2/g): Table 4, powder specific surface area; for Specific Surface Area (BET): N2 adsorption at 77 K
Protocol: The BET (Brunauer, Emmett and Teller) specific surface area for nepafenac was measured using a Micromeritics™ GEMINI V equipment (GEMINI CONFIRM V2.00 Software™). The sample for analysis was degassed at 30° C. for 10 minutes and at 140° C. for one hour. The determination of the adsorption of N2 at 77 K was measured for relative pressures in the range of 0.02 to 0.2 for a weighed amount of nepafenac (i.e., approximately 0.5 g).

[3] = Density by glass pycnometer in n-heptane; type: physicochemical; details: for ρ: Table 4, particle density
Protocol: Density of nepafenac samples was determined at 25° C. using a 50 mL glass pycnometer. […] The density of the nepafenac sample (ρs) can be determined from the known density of n-heptane (ρH: 0.685 g/cm^3), the weight of the pycnometer filled only with n-heptane (WH^0, the weight of the filled pycnometer containing both nepafenac and n-heptane (WS+H), and the weight of nepafenac (WS):
Density of nepafenac samples was determined for three times, being the listed result the mean of the three values available for each sample.

[4] = Sphericity factor calculation; type: physicochemical; details: calculated from Sw, ρ and DMVS
Text: One of the most common ways of expressing the degree of irregularity of the particles is by means of the sphericity factor (ψw), which is generally defined as the ratio between the surface area of a sphere having the same volume as the particle and the surface area of the particle:
Because sphericity factors are not calculated for each particle but for an assembly of particles, they have to be based on an average size. Thus, the sphericity factor will then be given by the following equation: […]
where Sw is the powder specific surface area, ρ is the particle density and DMVS is the surface area mean diameter, also referred to as the mean volume-surface, the Sauter diameter or D[3,2]. The Sauter diameter is defined as the diameter of a sphere that has the same volume/surface area ratio as the particle of interest.
A sphericity factor of 1.0 describes a perfect sphere with the greatest ease of flow (Encapsulated and powdered foods, CRC Press 2005).

[5] = Solubility of nepafenac at reflux temperature in crystallization solvent; type: physicochemical
Protocol: General procedure: Nepafenac was dissolved under magnetical stirring and at reflux in a solvent (See Table 1). The solution was cooled to room temperature under stirring. The solid was filtered and dried. The different conditions and the obtained results are described in Table 1 below.

[6] = Optical microscopy: crystal shape and aspect ratio; type: physicochemical; details: for Crystal shape: optical microscopy, 40× magnification; for Aspect ratio: crystal length / width, average of at least 100 crystals
Text: The “aspect ratio” of a crystal is defined as the ratio of its longest dimension to its shortest dimension. As used herein, “aspect ratio” is the quotient of the division of a crystal's length by its width. The aspect ratio of crystals can be obtained by taking micrographs of a batch of crystal (See General Experimental Conditions. Optical Microscopy).
The micrographs were taken at 40× magnification.
The aspect ratio of crystals was obtained from micrographs of a batch of crystal. Micrographs were processed with ImageJ 1.42q software. Length and width of at least 100 representative crystals (i.e., having an area greater than 500 μm^2 for a 40× magnification image) was measured, and the aspect ratio of each crystal was calculated by dividing the crystal length by the crystal width. The average aspect ratio for each batch was determined by dividing the sum of crystal aspect ratios by the number of crystals measured.

[7] = Chargeability observed when handling crystals with a metallic material; type: physicochemical
Text: Drug substances in solid form can suffer electrostatic charging by contact or friction electrification (tribocharging) caused by interactions among particles or between particles and the surfaces that contain them. These interactions can affect formulation, manufacture, powder flow, and packing behaviour. In addition, it has been reported that electrostatic charges are also responsible for problems in blend uniformity. The net positive or negative tendency of dry powders to become charged electrostatically is called chargeability.
There is no standard instrument for the measurement of the chargeability of dry powders (see AAPS PharmSciTech 2006, 7, Article 103). Triboelectric charge is commonly reported on a charge-to-mass basis since net charge and mass can be easily measured. However, triboelectric and induction charging are more closely related to the surface area of a particle rather to volume or mass. Then, it is well known that the surface area of the particles plays a key role in dry powder chargeability, and that therefore the particles having a higher specific surface area can hold a greater charge.

[8] = Solubility statements (water, n-heptane); type: physicochemical; details: n-heptane at the working temperature (25° C.)
[9] = stated as known; cited from earlier work
[10] = Flowability by Hausner ratio (tapped / bulk density); type: physicochemical; details: micronized crystals
Protocol: Flowability affects the ease with which the material is handled during processing into a pharmaceutical product. Namely, when flowability is very poor, problems occur with handling and processing during formulating. The flowability of nepafenac can be measured using the Hausner ratio, which is a value calculated by dividing the tapped bulk density of nepafenac by the freely settled bulk density of nepafenac. The freely settled bulk density is calculated by pouring a known weight of material into a measuring cylinder and recording the volume. The tapped density is calculated by tapping the cylinder against a surface for a specified number of times and recording again the new volume. See Henry H. Hausner, “Friction Conditions in a Mass of Metal Powders”, Int. J. Powder Metall. Vol. 3, 1967, pp 7-13.
A low Hausner ratio indicates a high flowability. […]
Measurement of Hausner ratio is well-known in the art and is described, for example, by Mersmann; Crystallization Technology Handbook (A. Mersmann, ed., 2nd Ed., Marcel Dekker). In the present invention, the bulk and tapped densities for each sample of nepafenac were determined using a TP-TD1 tapped densitometer from Pharma Test. The Hausner ratio of the nepafenac sample was calculated by dividing the tapped bulk density by the bulk density.

[11] = Table 3, micronized samples, unit inferred

SMILES: NC(=O)Cc1cccc(C(=O)c2ccccc2)c1N [Example 10, 2-amino-3-benzoylbenzeneacetamide]
- DMVS (μm) [1]: 2.7 μm
- D10 ([1]; by volume): 2.2 μm
- D50 ([1]; by volume): 12.1 μm
- D90 ([1]; by volume): 27.5 μm
- D[3,2] ([1]; mean diameter by surface area to volume (Sauter diameter)): 2.7 μm
- Sw (m^2/g) [2]: 2.0341 ± 0.0074 m^2/g
- ρ [3]: 1.33 g/mL
- Ψw (sphericity factor) [4]: 0.82

SMILES: NC(=O)Cc1cccc(C(=O)c2ccccc2)c1N [Example 3, 2-amino-3-benzoylbenzeneacetamide]
- solubility ([5]; 2-propanol:water 70:30, organic solvent or mixture, thermodynamic from solid, in 2-propanol:water 70:30 at reflux, read-out: Solubility): 79.6 mg/mL (≈ 313 mM)
- Crystal shape [6]: Plate

SMILES: NC(=O)Cc1cccc(C(=O)c2ccccc2)c1N [Batch 3, 2-amino-3-benzoylbenzeneacetamide]
- D10 [1, 11]: 4.4 µm
- D50 [1, 11]: 14.9 µm
- D90 [1, 11]: 45.3 µm

SMILES: NC(=O)Cc1cccc(C(=O)c2ccccc2)c1N [Example 5, 2-amino-3-benzoylbenzeneacetamide]
- Crystal shape [6]: plate-like shape
- Chargeability [7]: Reduced chargeability

SMILES: NC(=O)Cc1cccc(C(=O)c2ccccc2)c1N [Example 1, 2-amino-3-benzoylbenzeneacetamide]
- solubility ([5]; 2-propanol:water 90:10, organic solvent or mixture, thermodynamic from solid, in 2-propanol:water 90:10 at reflux, read-out: Solubility): 55.2 mg/mL (≈ 217 mM)
- Aspect ratio [6]: 3.04
- Crystal shape [6]: Plate

SMILES: NC(=O)Cc1cccc(C(=O)c2ccccc2)c1N [Batch 2, 2-amino-3-benzoylbenzeneacetamide]
- D10 [1, 11]: 4.8 µm
- D50 [1, 11]: 19.8 µm
- D90 [1, 11]: 66.5 µm

SMILES: NC(=O)Cc1cccc(C(=O)c2ccccc2)c1N [Example 6, 2-amino-3-benzoylbenzeneacetamide]
- D10 ([1]; by volume): 30.5 μm
- D50 ([1]; by volume): 144.9 μm
- D90 ([1]; by volume): 401.8 μm
- D[4,3] [1]: 185.0 μm
- Specific Surface Area (BET) [2]: 0.7046±0.0272 m^2/g
- Crystal shape [6]: plate-like crystals

SMILES: NC(=O)Cc1cccc(C(=O)c2ccccc2)c1N [Batch 1, 2-amino-3-benzoylbenzeneacetamide]
- D10 [1, 11]: 6.1 µm
- D50 [1, 11]: 21.4 µm
- D90 [1, 11]: 64.3 µm

SMILES: NC(=O)Cc1cccc(C(=O)c2ccccc2)c1N [Example 4, 2-amino-3-benzoylbenzeneacetamide]
- solubility ([5]; 2-propanol:water 60:40, organic solvent or mixture, thermodynamic from solid, in 2-propanol:water 60:40 at reflux, read-out: Solubility): 32.6 mg/mL (≈ 128 mM)
- Crystal shape [6]: Plate

SMILES: NC(=O)Cc1cccc(C(=O)c2ccccc2)c1N [Example 7, 2-amino-3-benzoylbenzeneacetamide, reference compound]
- D10 ([1]; by volume): 1.3 μm
- D50 ([1]; by volume): 6.1 μm
- D90 ([1]; by volume): 17.1 μm

Now from value to compound, other results behind:

- Aspect ratio [6]: 5.67
- Crystal shape [6]: Needle-like crystals
SMILES: NC(=O)Cc1cccc(C(=O)c2ccccc2)c1N [Comparative Example 2, 2-amino-3-benzoylbenzeneacetamide, reference compound]

- solubility ([5]; 2-propanol, organic solvent or mixture, thermodynamic from solid, in 2-propanol at reflux temperature, read-out: Solubility): 21 mg/mL (≈ 82.6 mM)
- solubility ([5]; mixtures of 2-propanol with up to 40% of water, organic solvent or mixture, thermodynamic from solid, in mixtures of 2-propanol with up to 40% of water at reflux temperature, read-out: Solubility): 30 to 80 mg/mL (≈ 118 to 315 mM)
- solubility ([5]; water, 100 °C, water, thermodynamic from solid, in water at reflux temperature, read-out: Solubility): 0.7 mg/mL (≈ 2.75 mM)
- Solubility in n-heptane [8]: practically insoluble
- True density ([3]; experimental): 1.33 g/mL
SMILES: NC(=O)Cc1cccc(C(=O)c2ccccc2)c1N [nepafenac, 2-amino-3-benzoylbenzeneacetamide, reference compound]
- Solubility in water [9]: practically insoluble

- solubility ([5]; in 2-propanol at reflux temperature): 21.2 mg/mL (≈ 83.4 mM)
- Crystal shape [6]: needle-like shape
- Chargeability [7]: high chargeability
SMILES: NC(=O)Cc1cccc(C(=O)c2ccccc2)c1N [Comparative Example 1, 2-amino-3-benzoylbenzeneacetamide, reference compound]

- DMVS (μm) [1]: 2.5 μm
- D10 ([1]; by volume): 1.2 μm
- D50 ([1]; by volume): 5.8 μm
- D90 ([1]; by volume): 18.9 μm
- Sw (m^2/g) [2]: 1.7686 ± 0.0242 m^2/g
- ρ [3]: 1.33 g/mL
- Hausner ratio [10]: 1.43
- Ψw (sphericity factor) [4]: 1.0
SMILES: NC(=O)Cc1cccc(C(=O)c2ccccc2)c1N [Example 8, 2-amino-3-benzoylbenzeneacetamide]

- solubility ([5]; 2-propanol:water 80:20, organic solvent or mixture, thermodynamic from solid, in 2-propanol:water 80:20 at reflux, read-out: Solubility): 78.6 mg/mL (≈ 309 mM)
- Crystal shape [6]: Plate
SMILES: NC(=O)Cc1cccc(C(=O)c2ccccc2)c1N [Example 2, 2-amino-3-benzoylbenzeneacetamide]

- D10 ([1]; by volume): 23.6 μm
- D50 ([1]; by volume): 85.8 μm
- D90 ([1]; by volume): 491.1 μm
- D[4,3] ([1]; unit not given, in µm (unit assumed)): 178.4
- Specific Surface Area (BET) [2]: 0.8256±0.0270 m^2/g
- Crystal shape [6]: Needle-like crystals
SMILES: NC(=O)Cc1cccc(C(=O)c2ccccc2)c1N [Comparative Example 3, 2-amino-3-benzoylbenzeneacetamide, reference compound]
